This is an account of results in PubChem BioAssay (NCI).

Holding throughout (experiment): NCI-60 cell line screen, 48 h
The test system of assay [1] is DU-145 prostate.
Assay [2] has as its system EKVX NSCLC.
Assay [3] concerns NCI-H23 lung.
Assay [4] relates to MALME-3M melanoma.
Assay [5] has as its system RPMI-8226 leukemia.
For assay [6], the system named is SK-MEL-2 melanoma.
Assay [7] has as its system M14 melanoma.
For assay [8], the system named is UO-31 renal.
Assay [9] relates to MDA-N.

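A five-concentration, 48-hour dose response in 96-well plates underlies each endpoint, interpolated linearly between surrounding concentrations. The concentration for 50% growth inhibition is given as GI50. The concentration for full growth arrest is given as TGI.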

For the compound `Nc1ccc(S(=O)(=O)c2ccc(N=[N+]([O-])c3ccc(S(=O)(=O)c4ccc(N)cc4)cc3)cc2)cc1`, the TGI in assay [1] was over 100 µM; in assay [2], over 100 µM; in assay [3], over 82.8 µM; in [4], over 100 µM; in [5], over 100 µM; in [6], over 94.2 µM. Further, the TGI in [7] and in assay [8] was over 100 µM throughout.
On to `CC(Nc1cc(=O)n(C)c(=O)[nH]1)c1ccccc1` (stereo unspecified), for which the TGI in assay [1], in assay [2], in assay [9], in [3], in assay [6] and in assay [7] was over 100 µM each time. Also, in assay [8], the TGI is over 100 µM.
In the case of `CC(=O)C1C(=O)C(=O)N(c2ccc([N+](=O)[O-])cc2Cl)C1=O` (stereo unspecified), the TGI in [1], in assay [2], in assay [9], in assay [3], in assay [6] and in assay [7] was over 100 µM throughout. In [8], the TGI is over 100 µM.
For `COC(=O)C(Cc1ccccc1)NC(=O)C(CCCN=C(N)N)NC(=O)OCc1ccccc1` (stereo unspecified), the TGI in [1], in assay [2], in [9], in assay [3], in assay [4] and in assay [5] was over 100 µM each time. Besides, the TGI in assay [7] and in assay [8] was over 100 µM in each case.
As to `CCCCCCCCCCCCCCCCCCNC(=S)/N=C/c1c(O)cc(C)oc1=O`, the TGI in [1] was over 100 µM; in [2], 57.9 µM; in assay [9], over 100 µM; in assay [3], 47.8 µM; in assay [6], 52.1 µM; in [7], 41.9 µM. In assay [8], this compound gave a TGI of 39.4 µM.
Consider `O=C(/C=C\c1ccc(OCCCCCC[P+](c2ccccc2)(c2ccccc2)c2ccccc2)cc1)c1ccc2c(c1)OCCO2`, for which the GI50 in assay [1] was 1.21 µM; in assay [2] it was 1.5 µM; in [5] it was 0.296 µM; in assay [6], 1.41 µM; in [8], 1.52 µM. In addition, the TGI in assay [1] stood at 2.6 µM; in assay [2], 6.72 µM; in assay [5], 1.3 µM; in assay [6] it was 3.9 µM; in assay [8], 3.2 µM.
Regarding `CCC(=O)n1c(=O)n(-c2ccc([N+](=O)[O-])cc2)c(=O)n1C(=O)CC`, the TGI in assay [1], in [2], in [9], in assay [3], in assay [5] and in assay [6] was over 100 µM throughout. Further, the TGI in assay [7] and in [8] was over 100 µM throughout.
`CC1(C)CC(=O)C2=C(C1)N(c1ccccc1)C1(O)C=CC(=O)C3=C(O)c4ccccc4C(=O)C321` (stereo unspecified): the TGI in [1] was over 100 µM; in assay [2], over 100 µM; in assay [3] it was 84 µM; in [4] it was 66.8 µM; in assay [5] it was over 100 µM; in assay [6] it was 60.9 µM. For the same compound, the results for the TGI in [7] and in [8] were over 100 µM and 47 µM, respectively.
Regarding `Cc1ccc(C(=O)/C=C/N2CCN(c3cccc(C(F)(F)F)c3)CC2)cc1`, the TGI was 38 µM in [1]; 41.8 µM in [2]; 31 µM in assay [3]; 38.1 µM in assay [4]; over 100 µM in [5]; 34.8 µM in [6]. Further, the values for the TGI in [7] and in [8] were 30.5 µM and 36.7 µM, respectively.
Take `CC(=O)O[C@@H]1CC2[C@@H](CCC3Cc4nc5c(nc4C[C@@]32C)CC2CC[C@@H]3C(CC[C@@]4(C)C3CC[C@@H]4C(C)CCCC(C)C)[C@@]2(C)C5)C2C[C@@H]3OC4(CCC(C)CO4)C(C)[C@@H]3[C@]21C` (stereo partly specified): the TGI in assay [1], in assay [2], in [9], in assay [3], in [4] and in [5] was over 100 µM throughout. The same compound showed a TGI in assay [7] of over 100 µM.
With `Cc1ccc(-c2nc3n(c2/C=N\N=C(N)N)CCS3)cc1`, the TGI in assay [1] was determined as 26.8 µM; in assay [2] it was 30.9 µM; in assay [3], 30.4 µM; in [4], 31.2 µM; in assay [5], 68.8 µM; in assay [6] it was 25.9 µM. The TGI in assay [8] came to 30.5 µM.
As for `CNc1nc(=O)c(C#N)c(-c2ccc(C)cc2)s1`, the TGI in assay [1], in assay [2], in assay [9], in assay [3], in assay [4] and in assay [6] was over 100 µM each time. Also, the TGI in assay [7] and in assay [8] was over 100 µM each time.
As to `CCOC(=S)SC/C(=N\OC(C)(C)OC)c1ccccc1`, the TGI in [1] is over 100 µM; in assay [2], over 100 µM; in [9] it was over 100 µM; in [3], over 100 µM; in assay [4], 75.9 µM; in [6], 43.9 µM. For the same compound, the TGI is over 100 µM in assay [7] and 95.8 µM in assay [8].
Regarding `CCOC(=O)C1CCCC1S(=O)(=O)c1ccc(C)cc1` (stereo unspecified), the TGI in assay [1], in assay [2], in assay [9], in [3], in [4] and in assay [5] was over 100 µM throughout. Also, the TGI in assay [7] and in assay [8] was over 100 µM each time.
With `O=C(OCc1c(-c2ccccc2)nn(-c2ccccc2)c1COC(=O)Oc1ccccc1)Oc1ccccc1`, the TGI in [1], in assay [2], in assay [9], in [3], in assay [4] and in [5] was over 100 µM throughout. The compound further registered a TGI in [7] of over 100 µM.
